Reference: patent publication US20040106120A1, “Diagnosis and treatment of disease” (priority 2000, published 2004)

Key:
Corneodesmosin = molecular target: T1, Corneodesmosin (Homo sapiens, UniProt Q15517); assay: Cleavage of adhesion proteins from human epidermis by recombinant SCCE/SCTE (immunoblot); format: biochemical; details: human epidermis protein extract incubated with active recombinant enzyme at 37 C
T1 construct: The native form of corneodesmosin has a molecular weight of between 50 and 56 kDa; from tissue; host or cells: human epidermis (TENP-40 buffer extract)
T1 sequence (Q15517 33-529): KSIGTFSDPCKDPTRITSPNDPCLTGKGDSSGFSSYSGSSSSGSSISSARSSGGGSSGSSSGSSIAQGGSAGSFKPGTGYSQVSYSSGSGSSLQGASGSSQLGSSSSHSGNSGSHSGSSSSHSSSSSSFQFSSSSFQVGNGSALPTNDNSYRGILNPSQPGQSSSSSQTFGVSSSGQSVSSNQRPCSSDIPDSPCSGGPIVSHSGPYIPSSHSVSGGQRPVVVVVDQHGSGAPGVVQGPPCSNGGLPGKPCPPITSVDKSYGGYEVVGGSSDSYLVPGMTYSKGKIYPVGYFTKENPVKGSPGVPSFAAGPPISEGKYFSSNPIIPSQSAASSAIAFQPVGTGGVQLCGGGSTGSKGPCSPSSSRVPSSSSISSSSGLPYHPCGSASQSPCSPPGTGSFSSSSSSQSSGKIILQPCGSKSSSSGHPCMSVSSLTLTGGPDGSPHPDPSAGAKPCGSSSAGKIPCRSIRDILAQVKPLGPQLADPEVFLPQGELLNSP
Protocol: (§1) Recombinant ProSCCE is produced and purified as described above. Recombinant ProSCCE is activated with agarose-bound trypsin, as described in Brasttsand & Egelrud, 1999.
(§2) Proteins are extracted from human epidermis in the presence of a detergent (TENP-40 buffer extract) and incubated with active SCCE for 37 C. for 4 h. The reactions are stopped by boiling for 2 mins after Laemmli's sample buffer is added. The proteins are immunoblotted with antibodies against corneodesmosomal proteins.

Desmocollin = assay: as above; format: biochemical; details: human epidermis protein extract incubated with active recombinant enzyme at 37 C
Protocol: as §1, §2

Desmoglein = assay: as above; format: biochemical; details: human epidermis protein extract incubated with active recombinant enzyme at 37 C
Protocol: as §1, §2

Desmoplakin = assay: as above; format: biochemical; details: human epidermis protein extract incubated with active recombinant enzyme at 37 C
Protocol: as §1, §2

Envoplakin = molecular target: T2, Envoplakin (Homo sapiens, UniProt Q92817); assay: as above; format: biochemical; details: human epidermis protein extract incubated with active recombinant enzyme at 37 C
T2 construct: The native form of Envoplakin has a molecular weight of between 124-209 kDa; from tissue; host or cells: human epidermis (TENP-40 buffer extract)
T2 sequence (Q92817 whole entry): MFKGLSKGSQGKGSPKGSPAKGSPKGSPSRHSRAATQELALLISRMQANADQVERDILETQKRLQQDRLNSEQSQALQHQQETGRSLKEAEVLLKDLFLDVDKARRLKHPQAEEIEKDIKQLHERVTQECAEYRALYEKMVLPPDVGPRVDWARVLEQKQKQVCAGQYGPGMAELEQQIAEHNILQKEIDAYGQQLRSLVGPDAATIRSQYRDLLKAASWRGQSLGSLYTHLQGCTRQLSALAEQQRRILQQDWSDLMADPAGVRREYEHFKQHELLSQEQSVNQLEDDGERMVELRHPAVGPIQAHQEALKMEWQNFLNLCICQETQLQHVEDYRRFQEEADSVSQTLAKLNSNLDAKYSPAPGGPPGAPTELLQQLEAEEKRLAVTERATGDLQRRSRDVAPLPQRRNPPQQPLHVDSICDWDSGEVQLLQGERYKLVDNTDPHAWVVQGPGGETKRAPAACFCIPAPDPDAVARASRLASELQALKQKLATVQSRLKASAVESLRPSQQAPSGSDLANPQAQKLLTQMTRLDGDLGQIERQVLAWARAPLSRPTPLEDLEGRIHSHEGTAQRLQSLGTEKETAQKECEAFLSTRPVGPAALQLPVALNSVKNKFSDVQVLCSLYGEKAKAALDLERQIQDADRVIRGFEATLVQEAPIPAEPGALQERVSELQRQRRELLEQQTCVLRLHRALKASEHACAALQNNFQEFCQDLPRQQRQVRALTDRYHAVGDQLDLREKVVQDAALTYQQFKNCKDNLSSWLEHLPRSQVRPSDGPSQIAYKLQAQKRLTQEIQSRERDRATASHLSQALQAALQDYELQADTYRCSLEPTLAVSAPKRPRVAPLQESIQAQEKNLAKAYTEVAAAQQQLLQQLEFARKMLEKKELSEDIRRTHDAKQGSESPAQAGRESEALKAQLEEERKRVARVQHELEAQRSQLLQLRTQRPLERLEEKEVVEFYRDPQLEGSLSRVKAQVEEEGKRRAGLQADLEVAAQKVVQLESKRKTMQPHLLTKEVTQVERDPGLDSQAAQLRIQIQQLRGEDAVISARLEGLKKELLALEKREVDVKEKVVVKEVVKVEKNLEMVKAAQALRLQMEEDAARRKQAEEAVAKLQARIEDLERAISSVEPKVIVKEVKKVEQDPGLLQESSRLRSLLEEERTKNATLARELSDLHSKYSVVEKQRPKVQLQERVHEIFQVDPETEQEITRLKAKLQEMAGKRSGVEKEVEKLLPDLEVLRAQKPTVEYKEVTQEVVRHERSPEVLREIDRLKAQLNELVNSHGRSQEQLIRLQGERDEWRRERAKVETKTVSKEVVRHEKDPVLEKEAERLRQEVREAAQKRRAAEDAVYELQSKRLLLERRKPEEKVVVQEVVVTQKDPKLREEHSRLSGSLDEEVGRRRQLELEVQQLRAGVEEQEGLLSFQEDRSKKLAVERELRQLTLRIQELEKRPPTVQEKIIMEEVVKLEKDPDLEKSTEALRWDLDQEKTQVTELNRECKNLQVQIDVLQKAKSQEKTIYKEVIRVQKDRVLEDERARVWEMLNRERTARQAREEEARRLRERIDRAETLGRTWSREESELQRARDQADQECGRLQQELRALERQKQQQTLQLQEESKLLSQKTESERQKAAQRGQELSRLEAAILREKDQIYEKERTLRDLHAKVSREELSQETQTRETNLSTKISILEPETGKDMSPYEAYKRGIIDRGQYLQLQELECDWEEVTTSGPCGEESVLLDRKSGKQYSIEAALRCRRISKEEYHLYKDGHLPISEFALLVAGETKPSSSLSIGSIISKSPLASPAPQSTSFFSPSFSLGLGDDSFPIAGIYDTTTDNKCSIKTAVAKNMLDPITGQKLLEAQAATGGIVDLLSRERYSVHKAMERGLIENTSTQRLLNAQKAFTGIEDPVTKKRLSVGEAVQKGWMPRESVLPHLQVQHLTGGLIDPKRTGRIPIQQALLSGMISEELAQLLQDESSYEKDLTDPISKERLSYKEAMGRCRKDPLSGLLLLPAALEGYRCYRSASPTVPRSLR
Protocol: as §1, §2

Plakoglobin = molecular target: T3, Plakoglobin (Homo sapiens, UniProt P14923); assay: as above; format: biochemical; details: human epidermis protein extract incubated with active recombinant enzyme at 37 C
T3 construct: The native form of plakoglobin has a molecular weight of between 85 kDa and 75 kDa; from tissue; host or cells: human epidermis (TENP-40 buffer extract)
T3 sequence (P14923 1-745): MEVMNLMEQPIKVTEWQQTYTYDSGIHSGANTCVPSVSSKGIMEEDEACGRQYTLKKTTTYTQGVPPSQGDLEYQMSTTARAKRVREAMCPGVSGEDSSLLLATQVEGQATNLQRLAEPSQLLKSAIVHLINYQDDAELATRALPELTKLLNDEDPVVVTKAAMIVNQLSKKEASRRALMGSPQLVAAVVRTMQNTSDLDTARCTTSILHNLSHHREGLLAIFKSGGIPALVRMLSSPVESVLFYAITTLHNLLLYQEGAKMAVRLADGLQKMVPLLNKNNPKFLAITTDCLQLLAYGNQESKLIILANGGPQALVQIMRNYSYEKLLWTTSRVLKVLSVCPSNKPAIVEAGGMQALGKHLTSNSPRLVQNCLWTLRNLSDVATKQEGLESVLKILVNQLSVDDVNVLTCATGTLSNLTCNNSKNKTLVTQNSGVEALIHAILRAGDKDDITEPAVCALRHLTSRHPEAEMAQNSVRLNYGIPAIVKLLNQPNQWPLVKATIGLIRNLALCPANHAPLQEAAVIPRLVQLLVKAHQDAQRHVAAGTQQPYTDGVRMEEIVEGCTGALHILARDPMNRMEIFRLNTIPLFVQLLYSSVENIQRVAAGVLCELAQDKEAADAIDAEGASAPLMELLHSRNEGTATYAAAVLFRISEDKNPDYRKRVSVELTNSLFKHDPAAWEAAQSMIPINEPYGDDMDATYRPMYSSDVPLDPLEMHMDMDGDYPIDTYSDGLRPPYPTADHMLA
Protocol: as §1, §2

[1] = system: corneodesmosomes in stratum corneum tape strips; assay: Treatment of tape strips from psoriatic skin with proteases, corneodesmosome density by electron microscopy; parameters: species or system human; details: 22-50 nM recombinant SCCE or SCTE, 1-6 h at 37° C
Protocol: Tape strips are obtained according to a method described by Guerrin et al, 1998.
Small pieces of tape strips from control patients along with patients suffering from the skin conditions eczema, psoriasis, dermatitis and psoriasis are fixed for 2 h at 4° C. in Karnovsky fixative (2% paraformaldehyde, 2.5% gluteraldehyde in 0.1M phosphate buffer, pH 7.4). The samples are then washed three times in 0.1M phosphate buffer (pH7.4) containing 10% sucrose for 30 minutes each at 4° C.
Secondary fixation is carried out in aqueous 2% osmium tetroxide solution for 1 hour at room temperature. Dehydration is through a graded series of ethanol at room temperature (75% ethanol for 15 minutes; 95% ethanol for 15 minutes; 2 washes of 100% ethanol for 15 minutes; 100% ethanol dried over anhydrous copper sulphate for 15 minutes).
For resin embedding, samples are first placed in the intermediate solvent, propylene oxide, for two changes of 15 minutes duration. This is followed by infiltration in a 50:50 mixture of propylene oxide:araldite resin overnight at room temperature. […]
Ultrathin sections (70-90 nm) are cut on an ultramicrotome. […] Electron micrographs are recorded on Agfa Scientific 23D56 EM film.
Corneodesmosome density (area occupied by corneodesmosomes divided by total area of micrograph) is measured on electron micrographs of tape strips of each condition. […]

## SCTE: recombinant Stratum Corneum Tryptic Enzyme expressed in an active form
Corneodesmosin
  proteolysis of Corneodesmosin: proteolysed
Desmocollin
  proteolysis of Desmocollin: proteolysed
Desmoglein
  proteolysis of Desmoglein: proteolysed
Desmoplakin
  proteolysis of Desmoplakin: proteolysed
Envoplakin
  proteolysis of Envoplakin: proteolysed
Plakoglobin
  proteolysis of Plakoglobin: proteolysed
[1]
  number of corneodesmosomes in treated versus untreated stratum corneum: decrease significantly
